Laboratory results published in patent publication US12187709B2 (Genentech, Inc., priority 2021, dated 2025).

Tests used:
[1] = molecular target: c-Cbl (residues 47-435) (Homo sapiens (Human), UniProt P22681); assay: c-Cbl SPR assay; type: binding; details: 20° C.
Summary of the method: (§1)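 Where a chaser compound was used, % compound bound was calculated as (1−(RUT/RUT0))*100 relative to a prior chaser injection and fitted to a single exponential for kd. The single cycle titration (max 500 nM) was then fitted with kd held fixed.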

[2] = molecular target: c-Cbl (Homo sapiens (Human), UniProt P22681); assay: C-Cbl LCK Ub TR-FRET assay (C-cbl Lck HTRF); type: biochemical
c-Cbl, sequence (P22681 47-435): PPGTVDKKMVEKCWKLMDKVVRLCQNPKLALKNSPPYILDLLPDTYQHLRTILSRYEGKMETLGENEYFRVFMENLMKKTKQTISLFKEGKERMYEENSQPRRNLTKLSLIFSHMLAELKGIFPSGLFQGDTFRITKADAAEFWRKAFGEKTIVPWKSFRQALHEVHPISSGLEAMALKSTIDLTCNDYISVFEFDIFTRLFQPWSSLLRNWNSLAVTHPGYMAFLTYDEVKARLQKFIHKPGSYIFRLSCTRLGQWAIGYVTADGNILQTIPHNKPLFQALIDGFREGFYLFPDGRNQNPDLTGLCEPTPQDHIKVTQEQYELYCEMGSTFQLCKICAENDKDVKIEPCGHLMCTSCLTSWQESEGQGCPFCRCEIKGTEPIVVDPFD
Summary of the method: (§2)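 Detection reagents added, brief spin, 20 min RT. IC50 fit normalized to no-LCK (low) and DMSO (high) controls.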

[3] = molecular target: Human Cbl-b (residues 40-426) (Homo sapiens (Human), UniProt Q13191); assay: Cbl-b SPR assay; type: binding; details: for Fold of selectivity: C-cbl SPR Kd vs Cbl-b SPR Kd; for Kd: SPR, 20° C.
Human Cbl-b (residues 40-426), sequence (Q13191 40-426): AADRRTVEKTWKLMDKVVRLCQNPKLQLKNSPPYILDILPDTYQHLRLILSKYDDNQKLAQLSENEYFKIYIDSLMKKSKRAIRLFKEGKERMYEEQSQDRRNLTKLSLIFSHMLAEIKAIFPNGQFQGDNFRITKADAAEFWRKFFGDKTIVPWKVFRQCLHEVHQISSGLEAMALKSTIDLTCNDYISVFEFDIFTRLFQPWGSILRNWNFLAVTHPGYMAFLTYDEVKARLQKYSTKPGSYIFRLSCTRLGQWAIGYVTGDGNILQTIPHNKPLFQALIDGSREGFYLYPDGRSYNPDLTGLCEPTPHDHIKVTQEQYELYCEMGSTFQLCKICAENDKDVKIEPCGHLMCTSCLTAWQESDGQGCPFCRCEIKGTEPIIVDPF
Summary of the method: as §1

[4] = molecular target: Cbl-b (Homo sapiens (Human), UniProt Q13191); assay: Cbl-b LCK Ub TR-FRET assay (Cbl-b Lck HTRF); type: biochemical; details: for IC50: Cbl-b LCK Ub TR-FRET, Example 121; for (fold-selectivity) Cbl-b and C-Cbl Selectivity: ratio C-cbl Lck HTRF IC50 / Cbl-b Lck HTRF IC50
Cbl-b, sequence (Q13191 40-426): as above
Summary of the method: as §2

c-Cbl (residues 47-435), sequence (P22681 47-435): as the sequence (P22681 47-435) above

SMILES | Kd [1] | IC50 [2] | Fold of selectivity [3] | Kd [3] | IC50 [4] | (fold-selectivity) Cbl-b and C-Cbl Selectivity [4]
C[C@@H](NC1(C)CCC1)c1cc2c(c(C(F)(F)F)c1)CN(c1cccc([C@H](c3nncn3C)C3COC3)c1)C2=O [Compound 444, 2-(3-((R)-(4-methyl-4H-1,2,4-triazol-3-yl)(oxetan-3-yl)methyl)phenyl)-6-((R)-1-((1-methylcyclobutyl)amino)ethyl)-4-(trifluoromethyl)isoindolin-1-one] | 0.7 nM | 4.5 nM | 1.8× | 0.4 nM | 4.1 nM | 1.1x
C[C@H](NC1(C)CCC1)c1cc2c(c(C(F)(F)F)c1)CN(c1cccc([C@H](c3nncn3C)C3COC3)c1)C2=O [Compound 445, 2-(3-((R)-(4-methyl-4H-1,2,4-triazol-3-yl)(oxetan-3-yl)methyl)phenyl)-6-((S)-1-((1-methylcyclobutyl)amino)ethyl)-4-(trifluoromethyl)isoindolin-1-one] | 23 nM | 30 nM | 4.7× | 4.8 nM | 9.7 nM | 3.1x
Cn1cnnc1[C@]1(c2cccc(N3Cc4c(cc(CNC5(C)CCC5)cc4C(F)F)C3=O)c2)C[C@H](Cl)C1 [Compound 446, 2-(3-((1s,3s)-3-chloro-1-(4-methyl-4H-1,2,4-triazol-3-yl)cyclobutyl)phenyl)-4-(difluoromethyl)-6-(((1-methylcyclobutyl)amino)methyl)isoindolin-1-one] | 6.6 nM | 11 nM | 5.1× | 1.3 nM | 6.8 nM | 1.7x
Cn1cnnc1[C@]1(c2cccc(N3Cc4c(cc(CNC5(C)CCC5)cc4C(F)F)C3=O)c2)C[C@@H](Cl)C1 [Compound 447, 2-(3-((1r,3r)-3-chloro-1-(4-methyl-4H-1,2,4-triazol-3-yl)cyclobutyl)phenyl)-4-(difluoromethyl)-6-(((1-methylcyclobutyl)amino)methyl)isoindolin-1-one] | 1.6 nM | 6.2 nM | 5.3× | 0.3 nM | 4.5 nM | 1.4x
CO[C@H]1C[C@@](c2cccc(N3Cc4ccc(CNC5(C)CCC5)cc4C3=O)c2)(c2nncn2C)C1 [Compound 448, 2-(3-((1s,3s)-3-methoxy-1-(4-methyl-4H-1,2,4-triazol-3-yl)cyclobutyl)phenyl)-6-(((1-methylcyclobutyl)amino)methyl)isoindolin-1-one] | 2500 nM | 3900 nM | 5.8× | 420 nM | 730 nM | 5.5x
CO[C@H]1C[C@](c2cccc(N3Cc4ccc(CNC5(C)CCC5)cc4C3=O)c2)(c2nncn2C)C1 [Compound 449, 2-(3-((1r,3r)-3-methoxy-1-(4-methyl-4H-1,2,4-triazol-3-yl)cyclobutyl)phenyl)-6-(((1-methylcyclobutyl)amino)methyl)isoindolin-1-one] | 920 nM | 1200 nM | 8.0× | 120 nM | 220 nM | 5.4x
Cn1cnnc1[C@]1(c2cccc(N3Cc4c(Cl)cc(CNC5(C)CCC5)cc4C3=O)c2)C[C@@H](Cl)C1 [Compound 451, 4-chloro-2-(3-((1r,3r)-3-chloro-1-(4-methyl-4H-1,2,4-triazol-3-yl)cyclobutyl)phenyl)-6-(((1-methylcyclobutyl)amino)-methyl)isoindolin-1-one] | 1.5 nM | 6.6 nM | 6.0× | 0.25 nM | 4.2 nM | 1.6x
Cn1cnnc1[C@]1(c2cccc(N3Cc4c(Cl)cc(CNC5(C)CCC5)cc4C3=O)c2)C[C@H](Cl)C1 [Compound 452, 4-chloro-2-(3-((1s,3s)-3-chloro-1-(4-methyl-4H-1,2,4-triazol-3-yl)cyclobutyl)phenyl)-6-(((1-methylcyclobutyl)amino)methyl)isoindolin-1-one] | 2.4 nM | 5.6 nM | 3.3× | 0.7 nM | 5.5 nM | 1.0x
Cn1cnnc1C1(c2cccc(N3Cc4c(cc(C(CF)NC5(C)CCC5)cc4C(F)(F)F)C3=O)c2)CCC1 (stereo not drawn) [Compound 453, 6-(2-fluoro-1-((1-methylcyclobutyl)amino)ethyl)-2-(3-(1-(4-methyl-4H-1,2,4-triazol-3-yl)cyclobutyl)phenyl)-4-(trifluoromethyl)isoindolin-1-one] | 4.8 nM | 11 nM | 2.8× | 1.7 nM | 6.6 nM | 1.7x
CC[C@H]1C[C@@](c2cccc(N3Cc4c(cc(CNC5(C)CCC5)cc4C(F)(F)F)C3=O)c2)(c2nncn2C)C1 [Compound 454, 2-(3-((1r,3s)-3-ethyl-1-(4-methyl-4H-1,2,4-triazol-3-yl)cyclobutyl)phenyl)-6-(((1-methylcyclobutyl)amino)methyl)-4-(trifluoromethyl)isoindolin-1-one] | 9.2 nM | 16 nM | 11× | 0.85 nM | 6.5 nM | 2.4x
CC[C@H]1C[C@](c2cccc(N3Cc4c(cc(CNC5(C)CCC5)cc4C(F)(F)F)C3=O)c2)(c2nncn2C)C1 [Compound 455, 2-(3-((1s,3r)-3-ethyl-1-(4-methyl-4H-1,2,4-triazol-3-yl)cyclobutyl)phenyl)-6-(((1-methylcyclobutyl)amino)methyl)-4-(trifluoromethyl)isoindolin-1-one] | 15 nM | 20 nM | 11× | 1.4 nM | 8.7 nM | 2.3x

Further lines, results first:

Kd [1] | IC50 [2] | Fold of selectivity [3] | Kd [3] | IC50 [4] | (fold-selectivity) Cbl-b and C-Cbl Selectivity [4] | SMILES
1800 nM | 1600 nM | 5.3× | 340 nM | 220 nM | 7.2x | CO[C@H]1C[C@](c2cccc(N3Cc4c(cc(CN5CC(O)C5)cc4C(F)(F)F)C3=O)c2)(c2nncn2C)C1 [Compound 422, 6-((3-hydroxyazetidin-1-yl)methyl)-2-(3-((1r,3r)-3-methoxy-1-(4-methyl-4H-1,2,4-triazol-3-yl)cyclobutyl)phenyl)-4-(trifluoromethyl)isoindolin-1-one]
840 nM | 500 nM | 8.7× | 96 nM | 100 nM | 5.0x | CO[C@H]1C[C@](c2cccc(N3Cc4c(cc(CN5CC6(CC6)C5)cc4C(F)(F)F)C3=O)c2)(c2nncn2C)C1 [Compound 423, 6-(5-azaspiro[2.3]hexan-5-ylmethyl)-2-(3-((1r,3r)-3-methoxy-1-(4-methyl-4H-1,2,4-triazol-3-yl)cyclobutyl)phenyl)-4-(trifluoromethyl)isoindolin-1-one]
1900 nM | 880 nM | 11× | 170 nM | 130 nM | 6.8x | CCC(NCc1cc2c(c(C(F)(F)F)c1)CN(c1cccc([C@]3(c4nncn4C)C[C@H](OC)C3)c1)C2=O)C(=O)OC (stereo partly drawn) [Compound 425, methyl 2-(((2-(3-((1r,3r)-3-methoxy-1-(4-methyl-4H-1,2,4-triazol-3-yl)cyclobutyl)phenyl)-3-oxo-7-(trifluoromethyl)isoindolin-5-yl)methyl)amino)butanoate]
9.9 nM | 60 nM | 15× | 6.6 nM | 13 nM | 4.6x | CO[C@H]1C[C@](c2cccc(N3Cc4c(cc(CNC5CC6(C5)CC6(F)F)cc4C(F)(F)F)C3=O)c2)(c2nncn2C)C1 (stereo partly drawn) [Compound 426, 6-(((1,1-difluorospiro[2.3]hexan-5-yl)amino)methyl)-2-(3-((1r,3r)-3-methoxy-1-(4-methyl-4H-1,2,4-triazol-3-yl)cyclobutyl)phenyl)-4-(trifluoromethyl)isoindolin-1-one]
37 nM | 22 nM | 14× | 2.6 nM | 7 nM | 3.1x | CO[C@H]1C[C@](c2cccc(N3Cc4c(cc(CNC5CC6C(C5)C6(F)F)cc4C(F)(F)F)C3=O)c2)(c2nncn2C)C1 (stereo partly drawn) [Compound 427, 6-(((6,6-difluorobicyclo[3.1.0]hexan-3-y)amino)methyl)-2-(3-((1r,3r)-3-methoxy-1-(4-methyl-4H-1,2,4-triazol-3-yl)cyclobutyl)phenyl)-4-(trifluoromethyl)isoindolin-1-one]
19 nM | 23 nM | 7.2× | 2.6 nM | 5.8 nM | 4.0x | Cn1cnnc1[C@]1(c2cccc(N3Cc4c(cc(CNC5(C)CCC5)cc4C(F)(F)F)C3=O)c2)C[C@@H](OC2CC2)C1 [Compound 450, 2-(3-((1r,3r)-3-cyclopropoxy-1-(4-methyl-4H-1,2,4-triazol-3-yl)cyclobutyl)phenyl)-6-(((1-methylcyclobutyl)amino)methyl)-4-(trifluoromethyl)isoindolin-1-one]
